Assay results: patent publication US20250346606A1, “CAMPTOTHECIN COMPOUND, PREPARATION METHOD THEREFOR, AND APPLICATION THEREOF” (SICHUAN KELUN-BIOTECH BIOPHARMACEUTICAL CO., LTD., priority 2021, published 2025)
Read-outs that look alike come from different tables or passages of the source.

Assays:
Type in all cases: cell-based, Human
Hela cells = assay: Inhibitory effect of compounds on Hela cell proliferation; details: read-out: IC50, inhibitory activity on Hela cell proliferation
HCC70 cells = assay: Inhibitory effect of compounds on HCC70 cell proliferation; details: read-out: IC50, inhibitory activity on HCC70 cell proliferation
Protocol: (1) Cell plating: First, tumor cells HCC70 were cultured in corresponding medium, then digested with trypsin, centrifuged, resuspended, and counted, and the cells were adjusted to an appropriate concentration for plating.
(§1) Co-incubation of the compound of the present disclosure and tumor cells: after the cells adhered to the wall, the medium was removed, and the diluted bioactive molecule (the compound of the present disclosure) was added to the wells of the above plate, and incubated for 72 h.
(§2) In vitro cell viability detection: After the incubation, 50 μL of Cell Counting-Lite™ 2.0 reagent (Vazyme/Novazyme) was added to each well, shaken and mixed well in the dark, reacted for 10 minutes, and then the detection was carried out with a microplate reader (manufacturer: BMG, Model: PHERAStar-FS) for reading. The background RLU was obtained by using cell-free medium (with Cell Counting-Lite™), and the vehicle RLU was obtained by using cell-containing medium (with Cell Counting-Lite™). Cell inhibition rate=1−(sample RLU−background RLU)/(solvent RLU−background RLU)×100%. According to the four-parameter model fitting curve, the half maximal inhibitory concentration (IC50) of the compound was calculated, and the detection results were shown in Table 16.

MDA-MB-231 cells = assay: Inhibitory effect of compounds on MDA-MB-231 cell proliferation; details: read-out: IC50, inhibitory activity on MDA-MB-231 cell proliferation
Protocol: (1) Cell plating: First, tumor cells MDA-MB-231 were cultured in corresponding medium, then digested with trypsin, centrifuged, resuspended, and counted, and the cells were adjusted to an appropriate concentration for plating.
as §1
as §2, with “18.” for “16.”

NCI-N87 cells = assay: Inhibitory effect of compounds on NCI-N87 cell proliferation
In short: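 Adherent NCI-N87 cells were exposed to compound dilutions for 72 h. Viability measured by Cell Counting-Lite 2.0 luminescence, with inhibition calculated against vehicle and cell-free background RLU. IC50 from four-parameter fit.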

A549 cells = assay: Inhibitory effect of compounds on A549 cell proliferation; details: read-out: IC50, inhibitory activity on A549 cell proliferation
SKOV-3 cells = assay: Inhibitory effect of compounds on SKOV-3 cell proliferation; details: read-out: IC50, inhibitory activity on SKOV-3 cell proliferation
[1] = Homo sapiens, NCI-N87, 72 h, read-out: IC50, inhibitory activity on NCI-N87 cell proliferation, NCI-N87 human gastric cancer cells, 72 h incubation, Cell Counting-Lite 2.0

Compound | IC50 (Hela cells; Homo sapiens, HeLa, 72 h) [nM] | IC50 (HCC70 cells; Homo sapiens, HCC70, 72 h) [nM] | IC50 (MDA-MB-231 cells; Homo sapiens, MDA-MB-231, 72 h) [nM] | IC50 (NCI-N87 cells; [1]) [nM] | IC50 (A549 cells; Homo sapiens, A549, 72 h) [nM] | IC50 (SKOV-3 cells; Homo sapiens, SK-OV-3, 72 h) [nM] | IC50 (Hela cells; Hela human cervical cancer cells, 72 h incubation, Cell Counting-Lite 2.0) [nM] | IC50 (HCC70 cells; HCC70 human breast cancer cells, 72 h incubation, Cell Counting-Lite 2.0) [nM] | IC50 (MDA-MB-231 cells; MDA-MB-231 human breast cancer cells, 72 h incubation, Cell Counting-Lite 2.0) [nM] | IC50 (NCI-N87 cells; NCI-N87 human gastric cancer cells, 72 h incubation, Cell Counting-Lite 2.0, read-out: IC50, inhibitory activity on NCI-N87 cell proliferation) [nM] | IC50 (A549 cells; A549 human lung cancer cells, 72 h incubation, Cell Counting-Lite 2.0) [nM] | IC50 (SKOV-3 cells; SKOV-3 human ovarian cancer cells, 72 h incubation, Cell Counting-Lite 2.0) [nM]
CC#C[C@@H](O)C(=O)N[C@H]1CCc2c(C)c(F)cc3nc4c(c1c23)Cn1c-4cc2c(c1=O)COC(=O)[C@]2(O)CC [Example 1 (1-1-A), (R)—N-((1S,9S)-9-ethyl-5-fluoro-9-hydroxy-4-methyl-10,13-dioxo-2,3,9,10,13,15-hexahydro-1H,12H-benzo[de]pyrano[3′,4′:6,7]indolizino[1,2-b]quinolin-1-yl)-2-hydroxypent-3-yneamide] | 4.57 | 225 | 364 | 4.58 | 66.6 | 7.81 | – | – | – | – | – | –
(2S)—N-((1S,9S)-5-chloro-9-ethyl-9-hydroxy-4-methyl-10,13-dioxo-2,3,9,10,13,15-hexahydro-1H,12H-benzo[de]pyrano[3′,4′:6,7]indolizino[1,2-b]quinolin-1-yl)-2-hydroxypropylamine [Example 4 (2-7-A)] | – | – | – | – | – | – | 13.8 | 151 | 124 | 3.76 | 6.97 | 8.64
CC[C@@]1(O)C(=O)OCc2c1cc1n(c2=O)Cc2c-1nc1cc(Cl)c(C)c3c1c2[C@H](NC(=O)[C@@H](O)C1CC1)CC3 [Example 5 (2-12-B), (2S)—N-((1R,9S)-5-chloro-9-ethyl-9-hydroxy-4-methyl-10,13-dioxo-2,3,9,10,13,15-hexahydro-1H,12H-benzo[de]pyrano[3′,4′:6,7]indolizino[1,2-b]quinolin-1-yl)-2-cyclopropyl-2-hydroxyacetamide] | 16.7 | 176 | – | 4.97 | 5.52 | 4.99 | – | – | – | – | – | –
CC[C@@]1(O)C(=O)OCc2c1cc1n(c2=O)Cc2c-1nc1cc(Cl)c(C)c3c1c2[C@@H](NC(=O)[C@@H](O)C1CC1)CC3 [Example 5 (2-12-A), (2S)—N-((1S,9S)-5-chloro-9-ethyl-9-hydroxy-4-methyl-10,13-dioxo-2,3,9,10,13,15-hexahydro-1H,12H-benzo[de]pyrano[3′,4′:6,7]indolizino[1,2-b]quinolin-1-yl)-2-cyclopropyl-2-hydroxyacetamide] | 13.2 | 171 | 124 | 4.91 | 6.96 | 6.85 | – | – | – | – | – | –
